Where two headings read alike, the source gives them in different places. Where only a bound is given, the exact number is not on record here.

Consider 16 compounds from article PMC8097444 (Antimicrobial Agents and Chemotherapy, 2021).

One assay addresses SARS-CoV-2 3CL^pro (Severe acute respiratory syndrome coronavirus 2, UniProt P0DTD1). Description: SARS-CoV-2 3CLpro fluorogenic. The format is biochemical. The following applies: for inhibition of 3CL^pro in screen: 10 μM drug, hit of 1,068 or 2,701 FDA-approved drug collection.
The subject of a further assay is COVID-19 patients. The following applies: cited from earlier work.
The subject of another assay is SARS-CoV-2. The following applies: cited from earlier work.
Assay [1] deals with SARS-CoV-2 in human lung cells. The following applies: in vitro assay; cited from earlier work.
The next assay has as its system SARS-CoV-2 virus. The format is cell-based. The following applies: for selectivity index (SI): derived from CC50 and EC50.
For a further assay, the target named is SARS-CoV-2 PL^pro (Severe acute respiratory syndrome coronavirus 2, UniProt P0DTD1). Briefly: SARS-CoV-2 PLpro fluorogenic inhibition assay: screening at 10 μM and IC50. It is filed as biochemical.
Another assay concerns SARS-CoV. The following applies: read-out: EC50 against SARS-CoV; cited from earlier work.
Where [2] appears, read: read-out: EC50 against SARS-CoV-2 in vitro.

`CC(C)(C)NC(=O)N[C@H](C(=O)N1C[C@H]2[C@@H]([C@H]1C(=O)NC(CC1CCC1)C(=O)C(N)=O)C2(C)C)C(C)(C)C` (stereo partly drawn) [Boceprevir]: the “inhibition of 3CL^pro in screen” value at SARS-CoV-2 3CL^pro was “active at 10 μM”.

Consider `O=c1c2ccccc2[se]n1-c1ccccc1` [Ebselen], for which the “inhibition of 3CL^pro in screen” value on SARS-CoV-2 3CL^pro is given as “active at 10 μM”.

What is called EC50 is the concentration at which the effect is half-maximal. As for `CCC(CC)COC(=O)[C@H](C)N[P@](=O)(OC[C@H]1O[C@@](C#N)(c2ccc3c(N)ncnn23)[C@H](O)[C@@H]1O)Oc1ccccc1` [Remdesivir], the “benefit in clinical trials on COVID-19 patients” value with COVID-19 patients was 68%. Further, in the assay on SARS-CoV-2 (read-out: EC50, SARS-CoV-2 viral replication), the EC50 is 0.7 µM.

For the compound `CCN(CC)CCCC(C)Nc1ccnc2cc(Cl)ccc12` (stereo not drawn) [chloroquine], in assay [1], the “inhibitory effects on SARS-CoV-2 in human lung cells” value is on record as “no inhibitory effects”. The EC50 in the assay with SARS-CoV-2 (setting [2]) is 1.13 µM.

For the compound `NC(=O)c1nc(F)c[nH]c1=O` [favipiravir], the “inhibition of SARS-CoV-2 replication” value with SARS-CoV-2 was “weak inhibition”.

Regarding `CCN(CCO)CCCC(C)Nc1ccnc2cc(Cl)ccc12` (stereo not drawn) [hydroxychloroquine], in the assay on COVID-19 patients, the “clinical benefit against COVID-19” value is listed as “no clinical benefit”. The “inhibition of SARS-CoV-2 in vitro” value with SARS-CoV-2 is reported as “shown to inhibit SARS-CoV-2 in vitro”.

Broadly, the IC50 is the point on the concentration scale where inhibition reaches its midpoint. Low readings indicate greater potency, high ones weaker potency. Turning to `N[C@@H](Cc1cc(I)c(Oc2cc(I)c(O)c(I)c2)c(I)c1)C(=O)O` [levothyroxine], in the assay on SARS-CoV-2 virus, the “inhibition of virus, postentry treatment” value was “postentry treatment could not inhibit the virus”; the “reduction of viral plaques, full-time treatment” value (shortened to “reduction of viral plaques”) was “effective in reducing viral plaques”; the “selectivity index (SI)” value is above 14.3. On SARS-CoV-2 3CL^pro, this compound gave an IC50 of 19.2 ± 1.2 µM. Moreover, the midpoint of inhibition against SARS-CoV-2 PL^pro, the IC50, lay at 15.3 ± 4.2 µM.

With `CN(C)C(=O)C(CCN1CCC(O)(c2ccc(Cl)cc2)CC1)(c1ccccc1)c1ccccc1` [loperamide], in the assay with SARS-CoV-2 virus, the “inhibition of virus, postentry treatment” value is given as “postentry treatment could still inhibit the virus” and the “reduction of viral plaques” value is recorded as “effective in reducing viral plaques”. Also, in the assay with SARS-CoV-2 virus (entry treatment), the “antiviral activity, entry step” value is given as “not the entry step”.

Regarding `COC(=O)C1=C(C)NC(C)=C(C(=O)OCCN2CCN(C(c3ccccc3)c3ccccc3)CC2)C1c1cccc([N+](=O)[O-])c1` (stereo not drawn) [manidipine-2HCl], in the assay with SARS-CoV-2 virus, the “inhibition of virus, postentry treatment” value is “postentry treatment could still inhibit the virus”; the “reduction of viral plaques” value is on record as “effective in reducing viral plaques”; the “selectivity index (SI)” value is above 6.9. In addition, 10.4 ± 1.6 µM corresponded to half-maximal inhibition on SARS-CoV-2 3CL^pro (IC50). In addition, the IC50 on SARS-CoV-2 PL^pro came out at 14.2 ± 1.7 µM.

With `CNCCCC12CCC(c3ccccc31)c1ccccc12` [maprotiline], in the assay on SARS-CoV-2 virus, the “antiviral activity, entry step” value is on record as “not the entry step”; the “inhibition of virus, postentry treatment” value is “postentry treatment could still inhibit the virus”; the “reduction of viral plaques” value is given as “effective in reducing viral plaques”.

For `Nc1nc2c(ncn2CCC(CO)CO)c(=O)[nH]1` [penciclovir], the “inhibition of SARS-CoV-2 replication” value in the assay with SARS-CoV-2 is given as “weak inhibition”.

`COC(=O)[C@H]1[C@H]2C[C@@H]3c4[nH]c5cc(OC)ccc5c4CCN3C[C@H]2C[C@@H](OC(=O)c2cc(OC)c(OC)c(OC)c2)[C@@H]1OC` [reserpine]: in the assay with SARS-CoV-2 virus, the “reduction of viral plaques” value is recorded as “effective in reducing viral plaques” and the “selectivity index (SI)” value is above 15.2. In addition, the 50% inhibitory concentration (IC50) at SARS-CoV-2 PL^pro stood at 5.7 ± 0.7 µM. The EC50 in the assay on SARS-CoV is 3.4 µM.

For the compound `NC(=O)c1ncn([C@@H]2O[C@H](CO)[C@@H](O)[C@H]2O)n1` [ribavirin], in the assay on SARS-CoV-2, the “inhibition of SARS-CoV-2 replication” value was “weak inhibition”.

On to `Cc1ccc(C(=O)c2cc(O)c(O)c([N+](=O)[O-])c2)cc1` [tolcapone], for which the “antiviral activity (figure not shown)” value in the assay with SARS-CoV-2 virus (tolcapone) is “weak antiviral activity only at 50 μM”. Besides, at SARS-CoV-2 3CL^pro, the IC50 was 7.9 µM and the “inhibition of 3CL^pro in screen” value is given as “active at 10 μM”.

Take ivermectin: the EC50 with SARS-CoV-2 (setting [2]) was 2.5 µM.

Regarding lopinavir/ritonavir, the “inhibition of SARS-CoV-2 replication” value in the assay on SARS-CoV-2 is “weak inhibition”.
